# What was measured:
# [1] = test system: differentiated adipocytes; experiment: Hallmark genes and triglycerides in differentiated adipocytes; assay type: cell-based, human; conditions: 250 nM, transfected day nine, measured 12th day post differentiation
# Excerpt: The effect of the oligomeric compounds of the present invention targeting miRNAs on the expression of markers of cellular differentiation was examined in differentiated adipocytes.
# As previously described, the HSL, aP2, Glut4, and PPARγ genes play important rolls in the uptake of glucose and the metabolism and utilization of fats. Also as previously described, an increase in triglyceride content is another well-established marker for adipocyte differentiation. Human white preadipocytes (Zen-Bio Inc., Research Triangle Park, N.C.) were grown in preadipocyte media (ZenBio Inc.). After the cells reached confluence (approximately three days), they were exposed to differentiation media (Zen-Bio, Inc.) containing a PPAR-γ agonist, IBMX, dexamethasone, and insulin for three days. Cells were then fed Adipocyte Medium (Zen-Bio, Inc.), which was replaced at 2 to 3 day intervals. One day before transfection, 96-well plates were seeded with 3000 cells/well. Cells were then transfected on day nine post-differentiation, according to standard published procedures with 250 nM oligonucleotide in LIPOFECTIN™ (Invitrogen Corporation, Carlsbad, Calif.) (Monia et al., J. Biol. Chem. 1993 268(19):14514-22). Oligomeric compounds were tested in triplicate on each 96-well plate, and the effect of TNF-α, known to inhibit adipocyte differentiation, was also measured in triplicate. Oligomeric compound treatments and transfectant-only negative controls may be measured up to six times per plate. On day twelve post-differentiation, cells were washed and lysed at room temperature, and the expression of the four hallmark genes, HSL, aP2, Glut4, and PPARγ, as well as triglyceride (TG) accumulation were measured in adipocytes transfected with the uniform 2′-MOE phosphorothioate (PS) previously described in Example 13 as well as the chimeric gapmer oligomeric compounds targeting the mir-143 miRNA and the mir-143 pri-miRNA described in Example 16. On day twelve post-differentiation, cells were lysed in a guanadinium-containing buffer and total RNA was harvested. The amount of total RNA in each sample was determined using a Ribogreen Assay (Molecular Probes, Eugene, Oreg.). Real-time PCR was performed on the total RNA using primer/probe sets for the adipocyte differentiation hallmark genes Glut4, HSL, aP2, and PPARγ. Triglyceride levels as well as mRNA levels for each of the four adipocyte differentiation hallmark genes are expressed relative to control levels (control=treatment with ISIS-29848 (SEQ ID NO: 737)).
# [2] = test system: pGL3-Control luciferase reporter; experiment: pGL3-Control luciferase assay in HeLa cells (reporter without miRNA binding site); assay type: cell-based, human; conditions: for luciferase expression: 24 hours; for luciferase expression (% lucif. only control): pGL3-Control, 48 hours
# Excerpt: In one embodiment, an expression system based on the pGL3-Control (Promega Corp., Madison Wis.) vector containing a CMV promoter controlling expression of a luciferase reporter sequence was used in transient transfections of HeLa cells with plasmids expressing miRNA or pri-miRNA mimics. To assess the ability of miRNA mimics to bind and regulate the expression of the luciferase reporter gene, two reporter plasmids were constructed: 1) a synthetic DNA fragment comprising two sites perfectly complementary to mir-143 were inserted into the pGL3-Control luciferase reporter vector, to create the pGL3-mir-143 sensor plasmid, and 2) a DNA fragment comprising the 3′-UTR of the LIM domain only 4 (LMO4) gene (predicted to be regulated by mir-143) was inserted into pGL3-Control to create pGL3-LMO4; this fragment was PCR-amplified using a primer beginning at position 1261 of the LMO4 sequence (GenBank Accession NM_006769.2, incorporated herein as SEQ ID: 809) and the downstream primer hybridizing to the poly-A tail. In each of these plasmids, the target site was placed downstream of the luciferase coding sequence and upstream of the polyadenylation signal in the 3′-UTR of the luciferase reporter vector. The unmodified pGL3-Control luciferase reporter vector was used as a control.
# HeLa cells were routinely cultured and passaged as described, and on the day before transfection with expression or reporter plasmids, the HeLa cells were seeded onto 24-well plates 50,000 cells/well. Cells were transfected according to standard published procedures with various combinations of plasmids using 2 μg Lipofectamine™ 2000 Reagent (Invitrogen) per μg of plasmid DNA, or, when transfecting oligomeric compounds, 1.25 μg of Lipofectamine™ 2000 Reagent per 100 nM oligonucleotide or double-stranded RNA. The luciferase signal in each well was normalized to the Renilla luciferase (RL) activity produced from a co-transfected plasmid, pRL-CMV, which was transfected at 0.5 μg per well. Cells were treated at various dosages (4 nM, 20 nM, and 100 nM) with the following oligomeric compound mimics: 1) “ds-mir-143,” 2) “ds-Control,” 3) “pCR3-pri-mir-143,” or 4) “pri-mir-control,” as described supra. In accordance with methods described in Example 12, supra, a luciferase assay was performed 48-hours after transfection. Briefly, cells were lysed in passive lysis buffer (PLB; Promega), and 20 ul of the lysate was then assayed for RL activity using a Dual Luciferase Assay kit (Promega) according to the manufacturer's protocol. The results below are an average of three trials and are presented as percent pGL3-Control luciferase expression normalized to pRL-CMV expression (RL).
# An expression system based on the pGL3-Control (Promega Corp., Madison Wis.) reporter vector and comprising predicted miRNA binding sites was used in transient transfections of HeLa cells with plasmids expressing oligomeric compounds mimicking miRNAs, pre-miRNAs or pri-miRNAs in order to assess the ability of these miRNA mimics to bind and regulate the expression of the luciferase reporter. The effect of increasing the copy number of the miRNA-binding site in the target was also tested by including multiple binding sites in artificial reporter constructs. It is understood that the presence of multiple miRNA-binding sites in a target can include binding sites for different miRNAs.
# HeLa cells were routinely cultured and passaged as described. In some embodiments, HeLa cells were transfected with 0.05 μg of the relevant pGL3-sensor plasmid and 0.01 μg pRL-CMV plasmid. Additionally, in some embodiments, cells were treated at various dosages (11 nM, 33 nM, and 100 nM) with the following oligomeric compound mimics: 1) ds-mir-143, or 2) ds-Control as described. In accordance with methods described in Example 12, a luciferase assay was performed 24-hours after transfection. The results, shown in Tables 40 and 41, are an average of three trials. […]
Substance,expression of hallmark marker genes in differentiated adipocytes [1],"luciferase expression ([2]; Table 40, pGL3-Control, 11 nM) [percent untreated control]","luciferase expression ([2]; Table 40, pGL3-Control, 33 nM) [percent untreated control]","luciferase expression ([2]; Table 40, pGL3-Control, 100 nM) [percent untreated control]","luciferase expression ([2]; Table 41, pGL3-Control, 11 nM) [percent untreated control]","luciferase expression ([2]; Table 41, pGL3-Control, 33 nM) [percent untreated control]","luciferase expression ([2]; Table 41, pGL3-Control, 100 nM) [percent untreated control]",luciferase expression (% lucif. only control) ([2]; 4 nM),luciferase expression (% lucif. only control) ([2]; 20 nM),luciferase expression (% lucif. only control) ([2]; 100 nM)
"CTAGTGGTCCTAAACATTTCAC (chemistry not given here) [ISIS 327878, uniform 2′-MOE PS; targets mir-203]","decreased expression of the aP2, HSL, Glut4 and PPARγ marker genes",,,,,,,,,
"ds-mir-143: double-stranded RNA of ISIS 342199 hybridized to its perfect complement ISIS 342200 (sense UGAGAUGAAGCACUGUAGCUCA; antisense UGAGCUACAGUGCUUCAUCUCA; RNA, backbone not given here)",,90.7,94.2,72.5,110.2,124.3,92.3,101.5,123.8,131.8

# Reference: patent US8178506B2, “Oligomeric compounds and compositions for use in modulation of small non-coding RNAs” (Regulus Therapeutics Inc., priority 2003, dated 2012)
